From patent publication US20240246964A1 (Arbutus Biopharma Corporation, priority 2021, published 2024)

Tests used:
human PD-L1 = human PD-L1 (Homo sapiens (Human), UniProt Q9NZQ7); assay: T cell activation luciferase reporter cell culture system (T Cell Activation Assay); type: cell-based; conditions: luciferase reporter assay; PD-L1 aAPC/CHO-K1 cells with PD-1 effector Jurkat T cells
[1] = biological target: PD-L1 His protein / PD-1 Fc protein (Homo sapiens (Human), UniProt Q9NZQ7); assay: HTRF Assay (PD-1/PD-L1 interaction); type: binding; conditions: PD-L1 His 6 nM, PD-1 Fc 6 nM
PD-L1 His protein / PD-1 Fc protein, sequence (Q9NZQ7 19-238): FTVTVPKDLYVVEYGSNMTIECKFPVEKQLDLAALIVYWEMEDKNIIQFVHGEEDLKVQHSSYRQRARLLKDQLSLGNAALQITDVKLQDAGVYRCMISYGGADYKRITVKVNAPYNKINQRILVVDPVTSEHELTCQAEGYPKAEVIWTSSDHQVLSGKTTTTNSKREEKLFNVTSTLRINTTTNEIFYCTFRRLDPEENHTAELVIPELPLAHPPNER

human PD-L1, sequence (Q9NZQ7 19-290): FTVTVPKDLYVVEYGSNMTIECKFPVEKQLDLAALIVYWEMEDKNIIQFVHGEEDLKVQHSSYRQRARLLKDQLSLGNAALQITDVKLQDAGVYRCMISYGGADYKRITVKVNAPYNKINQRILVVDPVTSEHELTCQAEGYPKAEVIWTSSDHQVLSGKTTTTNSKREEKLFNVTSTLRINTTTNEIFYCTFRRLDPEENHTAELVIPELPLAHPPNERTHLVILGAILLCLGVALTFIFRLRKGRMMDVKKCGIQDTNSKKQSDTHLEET

Row | Structure (SMILES) | EC50 (human PD-L1) | IC50 [1]
1 | CNCc1ccc(-c2cccc(-c3ccnc(-c4ccc(CNCCC(=O)OC(C)C)c(OC)c4)c3Cl)c2Cl)nc1OC [Example 279, Isopropyl 3-((4-(3-chloro-4-(2-chloro-3-(6-methoxy-5-((methylamino)methyl)pyridin-2-yl)phenyl)pyridin-2-yl)-2-methoxybenzyl)amino)propanoate] | 224 nM | 12.4 nM
2 | CNCc1ccc(-c2cccc(-c3ccnc(-c4ccc(CNC[C@@H](O)CC(=O)OC(C)C)c(OC)c4)c3Cl)c2Cl)nc1OC [Example 280, Isopropyl (S)-4-((4-(3-chloro-4-(2-chloro-3-(6-methoxy-5-((methylamino)methyl)pyridin-2-yl)phenyl)pyridin-2-yl)-2-methoxybenzyl)amino)-3-hydroxybutanoate] | 111 nM | 28.7 nM
3 | CNCc1ccc(-c2cccc(-c3ccnc(-c4ccc(CN5CC6(CC(C(=O)OC(C)C)C6)C5)c(OC)c4)c3Cl)c2Cl)nc1OC [Example 281, Isopropyl 2-(4-(3-chloro-4-(2-chloro-3-(6-methoxy-5-((methylamino)methyl)pyridin-2-yl)phenyl)pyridin-2-yl)-2-methoxybenzyl)-2-azaspiro[3.3]heptane-6-carboxylate] | 153 nM | 10.9 nM
4 | COc1nc(-c2cccc(-c3ccnc(-c4ccc(CNC5CCN(C(C)=O)CC5)c(F)c4)c3Cl)c2Cl)ccc1CNC1CCN(C(C)=O)CC1 [Example 282, 1-(4-(((6-(3-(2-(4-(((1-Acetylpiperidin-4-yl)amino)methyl)-3-fluorophenyl)-3-chloropyridin-4-yl)-2-chlorophenyl)-2-methoxypyridin-3-yl)methyl)amino)piperidin-1-yl)ethan-1-one] | 85.3 nM | 1.56 nM
5 | CNCc1ccc(-c2nccc(-c3cccc(-c4ccc(CNC)c(OC)n4)c3Cl)c2Cl)cc1F [Example 283, 1-(6-(2-Chloro-3-(3-chloro-2-(3-fluoro-4-((methylamino)methyl)phenyl)pyridin-4-yl)phenyl)-2-methoxypyridin-3-yl)-N-methylmethanamine] | 36.7 nM | 3.94 nM
6 | COc1nc(-c2cccc(-c3ccnc(-c4ccc(CN5CC6(CNC(=O)C6)C5)c(F)c4)c3Cl)c2Cl)ccc1CN1CC2(CNC(=O)C2)C1 [Example 284, 2-((6-(2-Chloro-3-(3-chloro-2-(3-fluoro-4-((7-oxo-2,6-diazaspiro[3.4]octan-2-yl)methyl)phenyl)pyridin-4-yl)phenyl)-2-methoxypyridin-3-yl)methyl)-2,6-diazaspiro[3.4]octan-7-one] | 62.4 nM | 2.81 nM
7 | COc1cc(-c2nccc(-c3cccc(-c4ccc(CNC5CCN(C(C)=O)CC5)c(OC)n4)c3Cl)c2Cl)cc(F)c1CNC1CCN(C(C)=O)CC1 [Example 285, 1-(4-(((6-(3-(2-(4-(((1-Acetylpiperidin-4-yl)amino)methyl)-3-fluoro-5-methoxyphenyl)-3-chloropyridin-4-yl)-2-chlorophenyl)-2-methoxypyridin-3-yl)methyl)amino)piperidin-1-yl)ethan-1-one] | 14.2 nM | 0.716 nM
8 | CNCc1ccc(-c2cccc(-c3ccnc(-c4cc(F)c(CNC)c(OC)c4)c3Cl)c2Cl)nc1OC [Example 286, 1-(6-(2-Chloro-3-(3-chloro-2-(3-fluoro-5-methoxy-4-((methylamino)methyl)phenyl)pyridin-4-yl)phenyl)-2-methoxypyridin-3-yl)-N-methylmethanamine] | 15.4 nM | 5.16 nM
9 | COc1cc(-c2nccc(-c3cccc(-c4ccc(CN5CC6(CNC(=O)C6)C5)c(OC)n4)c3Cl)c2Cl)cc(F)c1CN1CC2(CNC(=O)C2)C1 [Example 287, 2-((6-(2-Chloro-3-(3-chloro-2-(3-fluoro-5-methoxy-4-((7-oxo-2,6-diazaspiro[3.4]octan-2-yl)methyl)phenyl)pyridin-4-yl)phenyl)-2-methoxypyridin-3-yl)methyl)-2,6-diazaspiro[3.4]octan-7-one] | 16.4 nM | 4.67 nM
